Measurements from US20040242501A1, “Spermicidal and virucidal properties of various forms of sophorolipids” (priority 2003, published 2004).

How the values were obtained:
[1] = test system: MT-2 cells; assay: Agent-induced cytotoxicity in cell-free inactivation assay; type: cell-based; design: TCTD50 Cytotoxicity: unit not given here; conditions: for TCTD50 Cytotoxicity: MT-2 cells, day 7
Procedure: (§1) Pre-titered concentrated virus (HIV-1 RF) stock (10 μL) was mixed with 90 μL of the test agent formulation in microtubes. At the end of the two-minute exposure period, serial 10-fold dilutions were carried out with a multichannel pipettor so that the sample dilutions were performed simultaneously. Aliquots (100 μL) of the serial dilutions were then transferred simultaneously to another 96-well plate which had been pre-seeded with MT-2 cells in RPMI medium supplemented with FBS. Four wells were used for each dilution of virus. The cultures were incubated at 37° C. in a humidified atmosphere of 5% CO2. The cultures were scored microscopically for virus-induced cytopathic effect and agent-induced cytotoxicity on day 4 and 7 of incubation, and day 7 reported. Cultures were routinely maintained 2 to 3 days after initial analysis, and observed visually and microscopically for abnormalities.

[2] = test system: HIV-1 RF; assay: Cell-free HIV inactivation assay; type: cell-based, human immunodeficiency virus (HIV); conditions: for virucidal / antiviral activity, in words: HIV as model organism, positive = minimum reduction in virus titer of 2 logs; for Log Reduction in Virus Titer: two-minute exposure, day 7, virus control 6.0 log10 TCID50/0.1 mL
Procedure: as §1

[3] = test system: human spermatozoa (swim-up sperm); assay: Sperm viability after washing (HOS medium); type: cell-based; conditions: 0.3 mg/mL, post-wash, mean ± SD, n=5
Procedure: (§2) Motility and viability time-responses were studied with a sophorolipid testing concentration of 0.3 mg/mL. At this concentration no effect of the solvent was observed. All sperm used for this experiment and throughout the study were obtained from human semen samples through a one hour swim-up separation technique in BWW medium+0.1% HSA. 100 uL of swim-up sperm were incubated with 1 uL of compound for the time points of 2 min, 30 min, 2 hrs, and 4 hrs and assessed for progressive motility (“real-time” assessment). n=5 for all time points. Co-incubation samples were diluted with 1 mL of BWW medium+0.1% HSA. The tubes were centrifuged, the supernatant removed, and the sperm resuspended in the original volume of 100 uL BWW+0.1% HSA and incubated at 37° C., 5% CO2. At 30 min post-washing, motility was again assessed. After the 30 min post-wash assessment, 900 uL of HOS medium was added to the sample and tubes were incubated for 30 min at 37° C. Post-incubation, samples were assessed for viability. Motility and viability were quantified “manually” under dark field microscopy (Nikon E-800).

[4] = test system: human spermatozoa (swim-up sperm); assay: Sperm motility time response (real-time and post-dilution/post-wash); type: cell-based; conditions: 0.3 mg/mL, mean ± SD, n=5; for Real-Time Motility (%): initial solvent DMSO; for Post-Dilution Motility (%): then washed, 30 min post-washing
Procedure: as §2

[5] = Percent of agent during exposure 0.03
[6] = Percent of agent during exposure 0.09
[7] = Percent of agent during exposure 0.3

Row | Structure (SMILES) | cytotoxicity, in words [1] | virucidal / antiviral activity, in words [2] | selectivity index (virucidal activity vs cytotoxicity), in words ([2]; comparison among the four sophorolipids of Table 2) | TCTD50 Cytotoxicity [1, 5] | TCTD50 Cytotoxicity [1, 6] | TCTD50 Cytotoxicity [1, 7] | Post-Dilution Viability (%) ([3]; 2 min incubation) | Post-Dilution Viability (%) ([3]; 30 min incubation) | Post-Dilution Viability (%) ([3]; 2 hour incubation) | Real-Time Motility (%) ([4]; 2 min incubation) | Post-Dilution Motility (%) ([4]; 2 min incubation) | Real-Time Motility (%) ([4]; 30 min incubation) | Post-Dilution Motility (%) ([4]; 30 min incubation) | Real-Time Motility (%) ([4]; 2 hour incubation) | Post-Dilution Motility (%) ([4]; 2 hour incubation) | virucidal / antiviral activity, in words ([2]; listed as ethyl ester form of sophorolipid) | Log Reduction in Virus Titer [2, 5] [Log] | Log Reduction in Virus Titer [2, 6] | Log Reduction in Virus Titer [2, 7]
1 | CCOC(=O)CCCCCCC/C=C\CCCCCCC(C)O[C@@H]1O[C@H](CO)[C@@H](O)[C@H](O)[C@H]1O[C@@H]1O[C@H](CO)[C@@H](O)[C@H](O)[C@H]1O (stereo partly shown) | reduced cytotoxicity | high activity | best selectivity index | – | – | – | – | – | – | – | – | – | – | – | – | – | – | – | –
2 | CCOC(=O)CCCCCCC/C=C\CCCCCCC(C)O[C@@H]1O[C@H](CO)[C@@H](O)[C@H](O)[C@H]1O[C@@H]1O[C@H](CO)[C@@H](O)[C@H](O)[C@H]1O (relative stereo) [SLET, Ethyl 17-L-[(2′-O-β-D-glucopyranosyl-β-D-glucopyranosyl)-oxy]-cis-9-octadecenoate] | – | – | – | ≦0.5 | ≦0.5 | 1.5 | 2.36 ± 5.29 | 1.00 ± 2.24 | 0.00 ± 0.00 | 0.73 ± 0.81 | 3.37 ± 3.87 | 0.00 ± 0.00 | 0.00 ± 0.00 | 0.00 ± 0.00 | 0.00 ± 0.00 | highly effective | 2.0 | 3.3 Log | 4.3 Log
3 | CCOC(=O)CCCCCCC/C=C\CCCCCCC(C)O[C@@H]1O[C@H](COC(C)=O)[C@@H](O)[C@H](O)[C@H]1O[C@@H]1O[C@H](COC(C)=O)[C@@H](O)[C@H](O)[C@H]1O (relative stereo) [SLETDA, Ethyl 17-L[(2′-O-β-D glucopyranosyl-β-D-glucopyranosyl)-oxy]-cis-9-octadecenoate 6′,6″-diacetate] | – | – | – | ≦0.5 | 1.5 | 1.5 | 0.40 ± 0.90 | 0.20 ± 0.45 | 0.00 ± 0.00 | 0.00 ± 0.00 | 0.00 ± 0.00 | 0.00 ± 0.00 | 0.00 ± 0.00 | 0.00 ± 0.00 | 0.00 ± 0.00 | – | 1.7 | ≧4.5 Log | ≧4.5 Log
4 | CCCCCCOC(=O)CCCCCCC/C=C\CCCCCCC(C)O[C@@H]1O[C@H](CO)[C@@H](O)[C@H](O)[C@H]1O[C@@H]1O[C@H](CO)[C@@H](O)[C@H](O)[C@H]1O (relative stereo) [SLHEX, Hexyl 17-L-[(2′-O-β-D-glucopyranosyl-β-D-glucopyranosyl)-oxy]-cis-9-octadecenoate] | – | – | – | ≦0.5 | ≦0.5 | 1.5 | 2.27 ± 3.22 | 1.10 ± 2.46 | 0.00 ± 0.00 | 1.26 ± 1.22 | 1.55 ± 2.18 | 0.00 ± 0.00 | 0.00 ± 0.00 | 0.00 ± 0.00 | 0.00 ± 0.00 | – | 0 | 3.0 Log | 4.0 Log
